Data reported in ChEMBL document CHEMBL1133301, “Beta-keto-ester chemistry and ketolides. Synthesis and antibacterial activity of 2-halogeno, 2-methyl and 2,3 enol-ether ketolides” (2000).
In brackets after ≈: the same amount, converted by molar mass.

What was measured:
Format in all cases: functional
Staphylococcus aureus [1] = assay: The compound has been evaluated for the antibacterial activity against Staphylococcus aureus EryRc 011CB20 strains
Streptococcus pyogenes = assay: The compound has been evaluated for the antibacterial activity against Streptococcus pyogenes EryS 02A1UC1.
Haemophilus influenzae = assay: The compound has been evaluated for the antibacterial activity against Haemophilus influenzae 351HT3 (beta-lactamase +)
Mus musculus [2] = assay: The compound has been evaluated for the in vivo efficacy that protect 50% of mice from lethal infection by Streptococcus Pneumonia EryS 032UC1 strain after oral administration
Streptococcus pneumoniae [3] = assay: The compound has been evaluated for the antibacterial activity against Streptococcus pneumoniae EryRc 030SJ1 strains
Staphylococcus aureus [4] = assay: The compound has been evaluated for the antibacterial activity against Staphylococcus aureus EryRi 011GO25i strains
Mus musculus [5] = assay: The compound has been evaluated for the in vivo efficacy that protect 50%of mice from lethal infection by Haemophilus influenzae AmpR 351RD7 after oral administration
Streptococcus pneumoniae [6] = assay: The compound has been evaluated for the antibacterial activity against Streptococcus pneumoniae EryRc 030PW23c strains
Mus musculus [7] = assay: The compound has been evaluated for the in vivo efficacy that protect 50% of mice from lethal infection by Streptococcus Pneumoniae EryRc 030MV2 strains after oral administration
Mus musculus [8] = assay: The compound has been evaluated for the in vivo efficacy that protect 50% of mice from lethal infection by Streptococcus Pneumoniae EryRi 030SJ5i strains after oral administration
Mus musculus [9] = assay: The compound has been evaluated for the in vivo efficacy that protect 50% of mice from lethal infection by Staphylococcus aureus EryS 011HT17 strains after oral administration
Streptococcus pneumoniae [10] = assay: The compound has been evaluated for the antibacterial activity against Streptococcus pneumoniae Ery Ri 030SJ 5i strains
Staphylococcus aureus [11] = assay: The compound has been evaluated for the antibacterial activity against Staphylococcus aureus EryS 011UC4 strains
Streptococcus pneumoniae [12] = assay: The compound has been evaluated for the antibacterial activity against Streptococcus pneumoniae EryS 032UC1 strains
Mus musculus [13] = assay: The compound has been evaluated for the in vivo efficacy that protect 50% of mice from lethal infection of Streptococcus Pneumonia EryS 032UC1 strain after oral administration
Mus musculus [14] = assay: The compound has been evaluated for the in vivo efficacy that protect 50% of mice from lethal infection of Streptococcus Pneumoniae EryRi 030SJ5i strains after oral administration
Mus musculus [15] = assay: The compound has been evaluated for the in vivo efficacy that protect 50% of mice from lethal infection of Streptococcus Pneumoniae EryRc 030MV2 strains after oral administration
Mus musculus [16] = assay: The compound has been evaluated for the in vivo efficacy that protect 50%of mice from lethal infection of Haemophilus influenzae AmpR 351RD7 after oral administration
Mus musculus [17] = assay: The compound has been evaluated for the in vivo efficacy that protect 50% of mice from lethal infection of Staphylococcus aureus EryS 011HT17 strains after oral administration

Structure (SMILES): CC[C@H]1OC(=O)[C@@](C)(F)C(=O)[C@H](C)[C@@H](O[C@@H]2O[C@H](C)C[C@H](N(C)C)[C@H]2O)[C@](C)(OC)C[C@@H](C)C(=O)[C@H](C)[C@H]2N(CCCCn3cnc(-c4cccnc4)c3)C(=O)O[C@]12C
- MIC (Staphylococcus aureus [1]): > 40 µg/mL
- MIC (Streptococcus pyogenes): < 0.02 µg/mL
- MIC (Haemophilus influenzae): 1.2 µg/mL (≈ 1.45 µM)
- ED50 (Mus musculus [2]): 1.5 mg/kg
- MIC (Streptococcus pneumoniae [3]): < 0.02 µg/mL
- MIC (Staphylococcus aureus [4]): 0.08 µg/mL (≈ 0.0964 µM)
- ED50 (Mus musculus [5]): 56 mg/kg
- MIC (Streptococcus pneumoniae [6]): < 0.02 µg/mL
- ED50 (Mus musculus [7]): 2 mg/kg
- ED50 (Mus musculus [8]): 4.3 mg/kg
- ED50 (Mus musculus [9]): 9 mg/kg
- MIC (Streptococcus pneumoniae [10]): < 0.02 µg/mL
- MIC (Staphylococcus aureus [11]): 0.02 µg/mL (≈ 0.0241 µM)
- MIC (Streptococcus pneumoniae [12]): < 0.02 µg/mL

Structure (SMILES): CC[C@H]1OC(=O)/C(C)=C\[C@H](C)[C@@H](O[C@@H]2O[C@H](C)C[C@H](N(C)C)[C@H]2O)[C@](C)(OC)C[C@@H](C)C(=O)[C@H](C)[C@H]2N(CCCCn3cnc(-c4cccnc4)c3)C(=O)O[C@]12C
- MIC (Staphylococcus aureus [1]): > 40 µg/mL
- MIC (Streptococcus pyogenes): 0.02 µg/mL (≈ 0.0251 µM)
- MIC (Haemophilus influenzae): 2.5 µg/mL (≈ 3.14 µM)
- MIC (Streptococcus pneumoniae [3]): 10 µg/mL (≈ 12.6 µM)
- MIC (Staphylococcus aureus [4]): 0.3 µg/mL (≈ 0.377 µM)
- MIC (Streptococcus pneumoniae [6]): 0.3 µg/mL (≈ 0.377 µM)
- MIC (Streptococcus pneumoniae [10]): 2.5 µg/mL (≈ 3.14 µM)
- MIC (Staphylococcus aureus [11]): 0.08 µg/mL (≈ 0.101 µM)
- MIC (Streptococcus pneumoniae [12]): 0.02 µg/mL (≈ 0.0251 µM)

Structure (SMILES): CC[C@H]1OC(=O)C(C)(Cl)C(=O)[C@H](C)[C@@H](O[C@@H]2O[C@H](C)C[C@H](N(C)C)[C@H]2O)[C@](C)(OC)C[C@@H](C)C(=O)[C@H](C)[C@H]2N(CCCCn3cnc(-c4cccnc4)c3)C(=O)O[C@]12C (stereo partly specified)
- MIC (Staphylococcus aureus [1]): > 40 µg/mL
- MIC (Streptococcus pyogenes): 0.04 µg/mL (≈ 0.0473 µM)
- MIC (Haemophilus influenzae): 2.5 µg/mL (≈ 2.95 µM)
- MIC (Streptococcus pneumoniae [3]): 5 µg/mL (≈ 5.91 µM)
- MIC (Staphylococcus aureus [4]): > 40 µg/mL
- MIC (Streptococcus pneumoniae [6]): 1.2 µg/mL (≈ 1.42 µM)
- MIC (Streptococcus pneumoniae [10]): 0.6 µg/mL (≈ 0.709 µM)
- MIC (Staphylococcus aureus [11]): 0.6 µg/mL (≈ 0.709 µM)
- MIC (Streptococcus pneumoniae [12]): 0.04 µg/mL (≈ 0.0473 µM)

Structure (SMILES): CC[C@H]1OC(=O)C(C)(C)C(=O)[C@H](C)[C@@H](O[C@@H]2O[C@H](C)C[C@H](N(C)C)[C@H]2O)[C@](C)(OC)C[C@@H](C)C(=O)[C@H](C)[C@H]2N(CCCCn3cnc(-c4cccnc4)c3)C(=O)O[C@]12C
- MIC (Staphylococcus aureus [1]): > 40 µg/mL
- MIC (Streptococcus pyogenes): 0.02 µg/mL (≈ 0.0242 µM)
- MIC (Haemophilus influenzae): 2.5 µg/mL (≈ 3.03 µM)
- MIC (Streptococcus pneumoniae [3]): 2.5 µg/mL (≈ 3.03 µM)
- MIC (Staphylococcus aureus [4]): 1.2 µg/mL (≈ 1.45 µM)
- MIC (Streptococcus pneumoniae [6]): 2.5 µg/mL (≈ 3.03 µM)
- MIC (Streptococcus pneumoniae [10]): 0.6 µg/mL (≈ 0.726 µM)
- MIC (Staphylococcus aureus [11]): 0.6 µg/mL (≈ 0.726 µM)
- MIC (Streptococcus pneumoniae [12]): 0.02 µg/mL (≈ 0.0242 µM)

Structure (SMILES): CC[C@H]1OC(=O)/C(C)=C(/OCOCCN(C)C)[C@H](C)[C@@H](O[C@@H]2O[C@H](C)C[C@H](N(C)C)[C@H]2O)[C@](C)(OC)C[C@@H](C)C(=O)[C@H](C)[C@H]2N(CCCCn3cnc(-c4cccnc4)c3)C(=O)O[C@]12C
- MIC (Staphylococcus aureus [1]): > 40 µg/mL
- MIC (Streptococcus pyogenes): 0.3 µg/mL (≈ 0.329 µM)
- MIC (Haemophilus influenzae): 20 µg/mL (≈ 21.9 µM)
- MIC (Streptococcus pneumoniae [3]): 10 µg/mL (≈ 11 µM)
- MIC (Staphylococcus aureus [4]): 20 µg/mL (≈ 21.9 µM)
- MIC (Streptococcus pneumoniae [6]): 2.5 µg/mL (≈ 2.74 µM)
- MIC (Streptococcus pneumoniae [10]): 5 µg/mL (≈ 5.48 µM)
- MIC (Staphylococcus aureus [11]): 2.5 µg/mL (≈ 2.74 µM)
- MIC (Streptococcus pneumoniae [12]): 0.15 µg/mL (≈ 0.164 µM)

Structure (SMILES): CC[C@H]1OC(=O)[C@H](C)[C@@H](O[C@H]2C[C@@](C)(OC)[C@@H](O)[C@H](C)O2)[C@H](C)[C@@H](O[C@@H]2O[C@H](C)C[C@H](N(C)C)[C@H]2O)[C@](C)(OC)C[C@@H](C)C(=O)[C@H](C)[C@@H](O)[C@]1(C)O [CLARITHROMYCIN]
- MIC (Staphylococcus aureus [1]): > 40 µg/mL
- MIC (Streptococcus pyogenes): 0.008 µg/mL (≈ 0.0107 µM)
- MIC (Haemophilus influenzae): 5 µg/mL (≈ 6.68 µM)
- ED50 (Mus musculus [2]): 2 mg/kg
- MIC (Streptococcus pneumoniae [3]): > 40 µg/mL
- MIC (Staphylococcus aureus [4]): > 40 µg/mL
- ED50 (Mus musculus [5]): > 150 mg/kg
- MIC (Streptococcus pneumoniae [6]): > 40 µg/mL
- ED50 (Mus musculus [7]): > 50 mg/kg
- ED50 (Mus musculus [8]): > 50 mg/kg
- ED50 (Mus musculus [9]): 12 mg/kg
- MIC (Streptococcus pneumoniae [10]): > 40 µg/mL
- MIC (Staphylococcus aureus [11]): 0.3 µg/mL (≈ 0.401 µM)
- MIC (Streptococcus pneumoniae [12]): 0.04 µg/mL (≈ 0.0535 µM)

Structure (SMILES): CC[C@H]1OC(=O)[C@H](C)C(=O)[C@H](C)[C@@H](O[C@@H]2O[C@H](C)C[C@H](N(C)C)[C@H]2O)[C@](C)(OC)C[C@@H](C)C(=O)[C@H](C)[C@H]2N(CCCCn3cnc(-c4cccnc4)c3)C(=O)O[C@]12C [TELITHROMYCIN]
- MIC (Staphylococcus aureus [1]): > 40 µg/mL
- MIC (Streptococcus pyogenes): < 0.02 µg/mL
- MIC (Haemophilus influenzae): 1.2 µg/mL (≈ 1.48 µM)
- MIC (Streptococcus pneumoniae [3]): < 0.02 µg/mL
- MIC (Staphylococcus aureus [4]): 0.08 µg/mL (≈ 0.0985 µM)
- MIC (Streptococcus pneumoniae [6]): 0.04 µg/mL (≈ 0.0493 µM)
- MIC (Streptococcus pneumoniae [10]): < 0.02 µg/mL
- MIC (Staphylococcus aureus [11]): 0.04 µg/mL (≈ 0.0493 µM)
- MIC (Streptococcus pneumoniae [12]): < 0.02 µg/mL

Structure (SMILES): CC[C@H]1OC(=O)[C@H](C)[C@@H](O[C@H]2C[C@@](C)(OC)[C@@H](O)[C@H](C)O2)[C@H](C)[C@@H](O[C@@H]2O[C@H](C)C[C@H](N(C)C)[C@H]2O)[C@](C)(O)C[C@@H](C)CN(C)[C@H](C)[C@@H](O)[C@]1(C)O [AZITHROMYCIN]
- MIC (Staphylococcus aureus [1]): > 40 µg/mL
- MIC (Streptococcus pyogenes): 0.6 µg/mL (≈ 0.801 µM)
- MIC (Haemophilus influenzae): 1.2 µg/mL (≈ 1.6 µM)
- ED50 (Mus musculus [13]): 4.5 mg/kg
- ED50 (Mus musculus [14]): > 50 mg/kg
- MIC (Streptococcus pneumoniae [3]): > 40 µg/mL
- ED50 (Mus musculus [15]): > 50 mg/kg
- MIC (Staphylococcus aureus [4]): > 40 µg/mL
- MIC (Streptococcus pneumoniae [6]): > 40 µg/mL
- ED50 (Mus musculus [16]): 94 mg/kg
- ED50 (Mus musculus [17]): 72 mg/kg
- MIC (Streptococcus pneumoniae [10]): > 40 µg/mL
- MIC (Staphylococcus aureus [11]): 0.3 µg/mL (≈ 0.401 µM)
- MIC (Streptococcus pneumoniae [12]): 0.15 µg/mL (≈ 0.2 µM)

Structure (SMILES): CC[C@H]1OC(=O)/C(C)=C(/OCOCCCc2ccccc2)[C@H](C)[C@@H](O[C@@H]2O[C@H](C)C[C@H](N(C)C)[C@H]2O)[C@](C)(OC)C[C@@H](C)C(=O)[C@H](C)[C@H]2N(CCCCn3cnc(-c4cccnc4)c3)C(=O)O[C@]12C
- MIC (Staphylococcus aureus [1]): > 40 µg/mL
- MIC (Streptococcus pyogenes): 0.15 µg/mL (≈ 0.156 µM)
- MIC (Haemophilus influenzae): > 40 µg/mL
- MIC (Streptococcus pneumoniae [3]): 20 µg/mL (≈ 20.8 µM)
- MIC (Staphylococcus aureus [4]): > 40 µg/mL
- MIC (Streptococcus pneumoniae [6]): 20 µg/mL (≈ 20.8 µM)
- MIC (Streptococcus pneumoniae [10]): 20 µg/mL (≈ 20.8 µM)
- MIC (Staphylococcus aureus [11]): 5 µg/mL (≈ 5.21 µM)
- MIC (Streptococcus pneumoniae [12]): 0.8 µg/mL (≈ 0.833 µM)
